Assay results: patent US12227771B2, “Expression systems and methods of use thereof” (Janssen Pharmaceutica NV, priority 2019, dated 2025)
Where “and” joins values, the source holds several entries; their conditions need not be identical. Equal values may be shown once. Read-outs that look alike come from different tables or passages of the source.

Experiments:
α9α10 nAChR [1] = target: T1, α9α10 nAChR (Homo sapiens, UniProt Q9GZZ6+Q9UGM1); assay: cell-based; assay type: cell-based; conditions: for rank order of potency of antagonists: dose response curves
T1 construct: expressed in transfected cells; host or cells: HEK293T
From the text: After three washes, the plates were placed in the FLIPR stage. […] Maximal FLIPR responses to ACh were plotted (FIGS. 3A-C).
Target sequence in this assay (Q9GZZ6 25-450): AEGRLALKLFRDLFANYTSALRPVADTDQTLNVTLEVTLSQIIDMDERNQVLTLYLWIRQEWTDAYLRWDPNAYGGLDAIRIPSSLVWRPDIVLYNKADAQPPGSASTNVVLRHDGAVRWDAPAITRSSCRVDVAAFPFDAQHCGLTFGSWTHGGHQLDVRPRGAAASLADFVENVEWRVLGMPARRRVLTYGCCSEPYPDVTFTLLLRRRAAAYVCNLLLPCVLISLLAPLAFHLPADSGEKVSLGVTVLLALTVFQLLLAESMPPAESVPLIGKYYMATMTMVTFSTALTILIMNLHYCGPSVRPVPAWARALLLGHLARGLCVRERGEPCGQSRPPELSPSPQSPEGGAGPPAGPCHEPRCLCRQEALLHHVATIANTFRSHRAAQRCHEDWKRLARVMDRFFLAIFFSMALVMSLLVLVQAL
Target sequence in this assay (Q9UGM1 23-479): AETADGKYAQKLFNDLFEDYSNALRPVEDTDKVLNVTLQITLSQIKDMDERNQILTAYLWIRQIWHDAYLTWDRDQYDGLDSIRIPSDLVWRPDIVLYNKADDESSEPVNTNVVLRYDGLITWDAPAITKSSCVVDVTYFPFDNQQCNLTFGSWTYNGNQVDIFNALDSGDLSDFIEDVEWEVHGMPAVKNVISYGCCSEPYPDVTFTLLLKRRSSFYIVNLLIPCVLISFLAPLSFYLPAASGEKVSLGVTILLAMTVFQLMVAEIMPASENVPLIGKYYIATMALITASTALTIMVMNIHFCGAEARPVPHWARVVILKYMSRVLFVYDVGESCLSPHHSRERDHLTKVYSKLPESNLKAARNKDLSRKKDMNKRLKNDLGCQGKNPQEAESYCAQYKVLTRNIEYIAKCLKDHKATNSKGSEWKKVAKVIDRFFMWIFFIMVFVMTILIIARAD

α9α10 nAChR [2] = target: T1, α9α10 nAChR; assay: FLIPR calcium assay of HEK293T cells co-transfected with α9α10 nAChR and cDNA clones, response evoked by 200 μM ACh; assay type: cell-based; conditions: 200 μM ACh; for FLIPR Response (Fold/Baseline): 180 s
Protocol: Human embryonic kidney 293T (HEK293T) cells were cultured in high glucose DMEM medium supplemented with 10% FBS, sodium pyruvate and penicillin/streptomycin. Prior to transfection, cells were seeded at ˜80-90% confluence in 384-well fluorescence imaging plate reader (FLIPR) assay plates. After a 4 hour (hr) incubation, wells of cells were individually co-transfected with human α9α10 nAChR plus one of 20,000 clones from cDNA libraries encoding most all human proteins (Origene Technologies; Rockville, Md.; Broad Institute; Cambridge, Mass.) using Fugene HD (Promega; Madison, Wis.) according to the manufacture's protocol. After two days incubation, cells were washed three times with assay buffer (137 mM NaCl, 4 mM KCl, 2 mM CaCl2, 1 mM MgCl2, 5 mM glucose, 10 mM HEPES pH7.4) and loaded with Calcium5 dye (Molecular Devices; San Jose, Calif.) and 1.25 mM probenecid for 1 hr at room temperature (RT). After three washes, the plates were placed in the FLIPR stage.
To further characterize the regulation of α9α10 nAChR expression, HEK293T cells were co-transfected with α9α10 nAChR and each of CHAT, TMIE, TMEM100, TMEM132A, TMEM132C, TMEM132D, TMEM132E and TNFRSF10A individually and in combination (Table 2).
Target sequence in this assay (Q9UGM1 23-479): as above
Target sequence in this assay (Q9GZZ6 25-450): as the sequence (Q9GZZ6 25-450) above

CN1[C@@H]2CC[C@H]1C[C@@H](OC(=O)C(CO)c1ccccc1)C2 (stereo partly drawn) [Atropine, atropine]
IC50 (α9α10 nAChR [1]; HEK293T, α9α10 nAChR + CHAT + TMIE, 200 μM ACh, read-out: Antagonist IC50): 340 µM | IC50 (α9α10 nAChR [1]; HEK293T, α9α10 nAChR + CHAT, 200 μM ACh, read-out: Antagonist IC50): 12.3 µM | IC50 (α9α10 nAChR [1]; HEK293T, α9α10 nAChR + TMIE, 200 μM ACh, read-out: Antagonist IC50): 15.7 µM | rank order of potency of antagonists (α9α10 nAChR [1]; 200 μM ACh): MLA>strychnine>atropine>nicotine

CN1CCCC1c1cccnc1 (stereo not drawn) [Nicotine, nicotine]
IC50 (α9α10 nAChR [1]; Antagonist IC50): 384 µM and 544 µM and 1500 µM | rank order of potency of antagonists (α9α10 nAChR [1]; 200 μM ACh): MLA>strychnine>atropine>nicotine

O=C1C[C@@H]2OCC=C3CN4CC[C@]56c7ccccc7N1[C@H]5[C@H]2[C@H]3C[C@H]46 [Strychnine, strychnine]
IC50 (α9α10 nAChR [1]; Antagonist IC50, HEK293T, α9α10 nAChR + CHAT + TMIE, 200 μM ACh): 1.8 µM | IC50 (α9α10 nAChR [1]; Antagonist IC50, HEK293T, α9α10 nAChR + CHAT, 200 μM ACh): 1.3 µM | IC50 (α9α10 nAChR [1]; Antagonist IC50, HEK293T, α9α10 nAChR + TMIE, 200 μM ACh): 0.76 µM

TNFRSF10A: Tumor necrosis factor receptor superfamily member 10A, SEQ ID NO: 10, co-transfected cDNA clone
FLIPR Response (Fold/Baseline) (α9α10 nAChR [2]; HEK293T co-transfected with α9α10 nAChR + CHAT plus the named gene): 2.0 Fold/Baseline | FLIPR Response (Fold/Baseline) (α9α10 nAChR [2]; HEK293T co-transfected with α9α10 nAChR plus the named gene): 0.4 Fold/Baseline | functional expression of co-transfected α9α10 nAChR in cDNA library screen (α9α10 nAChR [2]; HEK293T, 20,000 cDNA clones): enabled functional expression
